pIC50: −log10 of the molar value.
What follows are compounds tested against T1, CCR2 (Homo sapiens, UniProt P41597) (assay: MCP-1 Receptor Binding Assay in THP-1 Cells). Details: 0.5 nM 125I labeled MCP-1, 2 hours at 30° C., read-out: Inhibition of MCP-1 Binding IC50 CCR2 Binding.
T1 construct: host or cells: THP-1 human monocytic cells
T1 sequence (P41597 1-360 isoform P41597-2): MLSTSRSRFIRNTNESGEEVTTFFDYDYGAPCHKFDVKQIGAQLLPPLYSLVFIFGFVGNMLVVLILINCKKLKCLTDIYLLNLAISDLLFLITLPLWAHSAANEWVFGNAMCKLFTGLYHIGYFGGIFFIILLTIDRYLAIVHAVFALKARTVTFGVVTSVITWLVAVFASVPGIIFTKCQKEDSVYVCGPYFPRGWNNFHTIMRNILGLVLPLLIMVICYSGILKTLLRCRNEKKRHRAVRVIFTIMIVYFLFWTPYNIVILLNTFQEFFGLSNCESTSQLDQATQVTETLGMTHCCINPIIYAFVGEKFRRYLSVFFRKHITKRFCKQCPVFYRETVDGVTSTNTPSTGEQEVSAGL
Experimental: MCP-1 Receptor Binding Assay in THP-1 Cells
Human monocytic cell line THP-1 cells were obtained from American Type Culture Collection (Manassas, Va., USA). […] The cell density was maintained […].
1 μM cold MCP-1 was used for nonspecific binding.

Compound | pIC50
O=C(CNC(=O)c1cccc(C(F)(F)F)c1)NC1CN(C2CCC(c3ccc4c(c3)OCO4)CC2)C1 (single isomer, unassigned) [Example 1a, N-{[1-(4-Benzo[1,3]dioxol-5-yl-cyclohexyl)-azetidin-3-ylcarbamoyl]-methyl}-3-trifluoromethyl-benzamide] | 8.92
O=C(CNC(=O)c1ccccc1)NC1CN(C2CCC(c3ccc4c(c3)OCO4)CC2)C1 (single isomer, unassigned) [Example 2a, N-{[1-(4-Benzo[1,3]dioxol-5-yl-cyclohexyl)-azetidin-3-ylcarbamoyl]-methyl}-benzamide] | 6.41
O=C(CNC(=O)c1cccc(C(F)(F)F)c1)NC1CN(C2CCC(c3ccc4c(c3)OCC4)CC2)C1 (single isomer, unassigned) [Example 3a, N-({1-[4-(2,3-Dihydro-benzofuran-6-yl)-cyclohexyl]-azetidin-3-ylcarbamoyl}-methyl)-3-trifluoromethylbenzamide] | 7.35
O=C(CNC(=O)c1cccc(C(F)(F)F)c1)NC1CN(C2CCC(c3ccccc3)CC2)C1 (single isomer, unassigned) [Example 4a, N-{[1-(4-Phenyl-cyclohexyl)-azetidin-3-ylcarbamoyl]-methyl}-3-trifluoromethyl-benzamide] | 7.48
O=C(CNC(=O)c1cccc(C(F)(F)F)c1)NC1CN(C2CCC(c3ccc4oc(=O)[nH]c4c3)CC2)C1 (single isomer, unassigned) [Example 5a, N-({1-[4-(2-oxo-2,3-dihydro-benzooxazol-5-yl)-cyclohexyl]-azetidin-3-ylcarbamoyl}-methyl)-3-trifluoromethyl-benzamide] | 8.05
O=C(CNC(=O)c1cccc(C(F)(F)F)c1)NC1CN(C2CCC(c3ccc4sc(=O)[nH]c4c3)CC2)C1 (single isomer, unassigned) [Example 6a, N-({1-[4-(2-Oxo-2,3-dihydro-benzothiazol-5-yl)-cyclohexyl]-azetidin-3-ylcarbamoyl}-methyl)-3-trifluoromethyl-benzamide] | 6.70
COc1ccc(C2CCC(N3CC(NC(=O)CNC(=O)c4cccc(C(F)(F)F)c4)C3)CC2)cc1 (single isomer, unassigned) [Example 7a, N-({1-[4-(4-Methoxy-phenyl)-cyclohexyl]-azetidin-3-ylcarbamoyl}-methyl)-3-trifluoromethyl-benzamide] | 7.30
N#Cc1cccc(C2CCC(N3CC(NC(=O)CNC(=O)c4cccc(C(F)(F)F)c4)C3)CC2)c1 (single isomer, unassigned) [Example 8a, N-({1-[4-(3-Cyano-phenyl)-cyclohexyl]-azetidin-3-ylcarbamoyl}-methyl)-3-trifluoromethyl-benzamide] | 7.07
CCOC(=O)c1cccc(C2CCC(N3CC(NC(=O)CNC(=O)c4cccc(C(F)(F)F)c4)C3)CC2)c1 (single isomer, unassigned) [Example 11a, 3-(4-{3-[2-(3-Trifluoromethyl-benzoylamino)-acetylamino]-azetidin-1-yl}-cyclohexyl)-benzoic acid ethyl ester] | 6.87
CS(=O)(=O)c1cccc(C2CCC(N3CC(NC(=O)CNC(=O)c4cccc(C(F)(F)F)c4)C3)CC2)c1 (single isomer, unassigned) [Example 14a, N-({1-[4-(3-Methanesulfonyl-phenyl)-cyclohexyl]-azetidin-3-ylcarbamoyl}-methyl)-3-trifluoromethyl-benzamide] | 6.36
O=C(CNC(=O)c1cccc(C(F)(F)F)c1)NC1CN(C2CCC(c3ccc4nc[nH]c4c3)CC2)C1 (single isomer, unassigned) [Example 20a, N-({1-[4-(3H-Benzoimidazol-5-yl)-cyclohexyl]-azetidin-3-ylcarbamoyl}-methyl)-3-trifluoromethyl-benzamide] | 7.57
N#CCc1ccc(C2CCC(N3CC(NC(=O)CNC(=O)c4cccc(C(F)(F)F)c4)C3)CC2)cc1 (single isomer, unassigned) [Example 21a, N-({1-[4-(4-Cyanomethyl-phenyl)-cyclohexyl]-azetidin-3-ylcarbamoyl}-methyl)-3-trifluoromethyl-benzamide] | 7.52
CCOC(=O)Cc1ccc(C2CCC(N3CC(NC(=O)CNC(=O)c4cccc(C(F)(F)F)c4)C3)CC2)cc1 (single isomer, unassigned) [Example 24a, [4-(4-{3-[2-(3-Trifluoromethyl-benzoylamino)-acetylamino]-azetidin-1-yl}-cyclohexyl)-phenyl]-acetic acid ethyl ester] | 6.47
O=C(CNC(=O)c1cccc(C(F)(F)F)c1)NC1CN(C2CCC(O)(c3ccc4c(c3)OCO4)CC2)C1 (single isomer, unassigned) [Example 31a, N-{[1-(4-Benzo[1,3]dioxol-5-yl-4-hydroxy-cyclohexyl)-azetidin-3-ylcarbamoyl]-methyl}-3-trifluoromethyl-benzamide] | 7.34
O=C(CNC(=O)c1cccc(C(F)(F)F)c1)NC1CN(C2CCC(O)(c3ccc4c(c3)OCCO4)CC2)C1 (single isomer, unassigned) [Example 32a, N-({1-[4-(2,3-Dihydro-benzo[1,4]dioxin-6-yl)-4-hydroxy-cyclohexyl]-azetidin-3-ylcarbamoyl}-methyl)-3-trifluoromethyl-benzamide] | 7.20
O=C(CNC(=O)c1cccc(C(F)(F)F)c1)NC1CN(C2CCC(O)(c3ccc4c(c3)OCC4)CC2)C1 (single isomer, unassigned) [Example 33a, N-({1-[4-(2,3-Dihydro-benzofuran-6-yl)-4-hydroxy-cyclohexyl]-azetidin-3-ylcarbamoyl}-methyl)-3-trifluoromethyl-benzamide] | 7.60
O=C(CNC(=O)c1cccc(C(F)(F)F)c1)NC1CN(C2CCC(O)(c3ccc4nc[nH]c4c3)CC2)C1 (single isomer, unassigned) [Example 34a, N-({1-[4-(3H-Benzoimidazol-5-yl)-4-hydroxy-cyclohexyl]-azetidin-3-ylcarbamoyl}-methyl)-3-trifluoromethyl-benzamide] | 6.51
O=C(CNC(=O)c1cccc(C(F)(F)F)c1)NC1CN(C2CCC(O)(c3ccc4oc(=O)[nH]c4c3)CC2)C1 (single isomer, unassigned) [Example 35a, N-({1-[4-Hydroxy-4-(2-oxo-2,3-dihydro-benzooxazol-5-yl)-cyclohexyl]-azetidin-3-ylcarbamoyl}-methyl)-3-trifluoromethyl-benzamide] | 6.72
COc1ccc(C2(O)CCC(N3CC(NC(=O)CNC(=O)c4cccc(C(F)(F)F)c4)C3)CC2)cc1 (single isomer, unassigned) [Example 36a, N-({1-[4-Hydroxy-4-(4-methoxy-phenyl)-cyclohexyl]-azetidin-3-ylcarbamoyl}-methyl)-3-trifluoromethyl-benzamide] | 7.68
COc1cccc(C2(O)CCC(N3CC(NC(=O)CNC(=O)c4cccc(C(F)(F)F)c4)C3)CC2)c1 (single isomer, unassigned) [Example 37a, N-({1-[4-Hydroxy-4-(3-methoxy-phenyl)-cyclohexyl]-azetidin-3-ylcarbamoyl}-methyl)-3-trifluoromethyl-benzamide] | 7.16
CSc1cccc(C2(O)CCC(N3CC(NC(=O)CNC(=O)c4cccc(C(F)(F)F)c4)C3)CC2)c1 (single isomer, unassigned) [Example 38a, N-({1-[4-Hydroxy-4-(3-methylsulfanyl-phenyl)-cyclohexyl]-azetidin-3-ylcarbamoyl}-methyl)-3-trifluoromethyl-benzamide] | 6.72
O=C(CNC(=O)c1cccc(C(F)(F)F)c1)NC1CN(C2CCC(c3ccc(O)cc3)CC2)C1 (single isomer, unassigned) [Example 40a, N-({1-[4-(4-Hydroxy-phenyl)-cyclohexyl]-azetidin-3-ylcarbamoyl}-methyl)-3-trifluoromethyl-benzamide] | 7.68
O=C(CNC(=O)c1cccc(C(F)(F)F)c1)NC1CN(C2CCC(O)(c3cccc(O)c3)CC2)C1 (single isomer, unassigned) [Example 46a, N-({1-[4-Hydroxy-4-(3-hydroxy-phenyl)-cyclohexyl]-azetidin-3-ylcarbamoyl}-methyl)-3-trifluoromethyl-benzamide] | 6.96
O=C(CNC(=O)c1cccc(C(F)(F)F)c1)NC1CN(C2CCC(O)(c3ccc(F)cc3)CC2)C1 (single isomer, unassigned) [Example 47a, N-({1-[4-(4-Fluoro-phenyl)-4-hydroxy-cyclohexyl]-azetidin-3-ylcarbamoyl}-methyl)-3-trifluoromethyl-benzamide] | 6.69
N#Cc1cccc(C2(O)CCC(N3CC(NC(=O)CNC(=O)c4cccc(C(F)(F)F)c4)C3)CC2)c1 (single isomer, unassigned) [Example 48a, N-({1-[4-(3-Cyano-phenyl)-4-hydroxy-cyclohexyl]-azetidin-3-ylcarbamoyl}-methyl)-3-trifluoromethyl-benzamide] | 6.38
C#Cc1cccc(C2(O)CCC(N3CC(NC(=O)CNC(=O)c4cccc(C(F)(F)F)c4)C3)CC2)c1 (single isomer, unassigned) [Example 51a, N-({1-[4-(3-Ethynyl-phenyl)-4-hydroxy-cyclohexyl]-azetidin-3-ylcarbamoyl}-methyl)-3-trifluoromethyl-benzamide] | 6.64
CN(C)c1ccc(C2(O)CCC(N3CC(NC(=O)CNC(=O)c4cccc(C(F)(F)F)c4)C3)CC2)cc1 (single isomer, unassigned) [Example 54a, N-({1-[4-(4-Dimethylamino-phenyl)-4-hydroxy-cyclohexyl]-azetidin-3-ylcarbamoyl}-methyl)-3-trifluoromethyl-benzamide] | 7.21

— patent US8513229B2, “4-Azetidinyl-1-phenyl-cyclohexane antagonists of CCR2” (Janssen Pharmaceutica NV, priority 2009, dated 2013)
